Source: US20240307397A1, “PHARMACEUTICAL COMPOSITION COMPRISING PI3K AND DNA-PK DUAL INHIBITOR FOR PREVENTING OR TREATING PERIPHERAL T CELL LYMPHOMA” (BORYUNG CORPORATION, priority 2021, published 2024)

Key:
[1] = test system: subjects with advanced hematologic malignancies; assay: Phase Ia dose escalation clinical trial: safety, tolerability, DLT and MTD/RP2D; assay type: in vivo
Text: The phase Ia part (dose escalation) of this clinical trial is designed to determine safety, tolerability, and maximum tolerated dose (MTD)/starting dose (RP2D) for clinical phase Ib/II of the test drug in subjects with relapsed/refractory B-cell lymphoma, chronic lymphocytic leukemia (CLL)/small lymphocytic leukemia (SLL) and peripheral T-cell lymphoma (PTCL).
A method for escalating a dose during the treatment period (phase Ia part) is as follows. At least of 1 and up to 6 subjects may be enrolled in cohorts 1 and 2. 3 to 6 subjects may be enrolled into subsequent cohorts.
(2) Cohort 3 and all subsequent cohorts will follow the standard 3+3 design. […] If 1 of the 3 subjects experiences a DLT, that dose level will be expanded to 6 subjects (3 additional subjects will be enrolled). If 2 subjects at a given dose level experience a DLT, the maximum tolerated dose (MTD) will have been exceeded and further accrual to the cohort will be terminated. The next lower dose level will be expanded to 6 subjects or if 6 subjects have already been enrolled and no more than 1 of the 6 experienced a DLT, then this lower dose level will be considered the MTD (FIG. 3).
The dose limiting toxicity (DLT) in this clinical trial may include the followings:
1) Assessed by adverse events, vital signs, electrocardiogram (ECG), clinical laboratory tests, physical examination, ECOG performance status up to the last Safety Follow-up Visit, and baseline medical conditions.
2) Tolerability assessment includes review of dose interruptions, reductions, and doses administered up to the last Safety Follow-up Visit.
3) Determination of the maximum tolerated dose (MTD) and the starting dose (RP2D) for clinical phase Ib/II are based on dose limiting toxicity (DLT) during Cycle 1.
The number and proportion of subjects experiencing the dose limiting toxicity (DLT) are summarized based on the dose-limiting toxicity evaluable set. […] Estimation of maximum tolerated dose (MTD)/recommended dose for clinical phase Ib/II (RP2D) are based upon the methods for determination of MTD/RP2D provided herein (see 3. Overall design, 2) How to escalate dose of test drug).
A treatment emergent adverse event (TEAE) is defined as any AE that occurs after the first administration of the test drug through 30 days after the last administration of the test drug, or any event that is present at baseline but worsens in severity. […] All the adverse events and toxicities are graded according to CTCAE (version 5.0). Analysis may include, but is not limited to, the followings: […]

[2] = test system: advanced hematologic malignancies (PTCL, DLBCL, MZL, CTCL-MF); assay: Phase Ia clinical trial: tumor response assessment; assay type: in vivo, humans
Method: 1) Tumor response is assessed for both phases la and Ib. The anticancer activity of the test drug is assessed by applying various criteria through imaging tests every two cycles of clinical trials and at the end of therapy (EOT) (optional) (see table 14 for disease assessment criteria below), or for liquid tumors, bone marrow aspirates/biopsies and blood assessments are performed. Tumor response parameters that are assessed include the following: (1) Best overall response: complete response (CR), partial response (PR), stable disease (SD, lasting 12 weeks), or disease progression (DP) Details of the disease assessment criteria and the tools used to determine efficacy parameters are as follows (Table 14). The tumor response (lymphoma (B-cell and T-cell), CLL/SLL, Waldenstrom macroglobulinemia) following administration of the test drug in phases Ia and Ib is assessed using the criteria in table 14. Tumor response parameters vary according to the above applied criteria and may include the followings: The best overall response is defined as the best response across all time points (in the order of CR, PR, SD, and DP) post-treatment. The best overall response (CR, PR, SD, or DP) is summarized by number of subjects and percentages. In the case of best response equal to SD, the minimum duration for SD should be met. For the purpose of calculating an SD rate, the rate will be the percentage (%) of subjects who continue to have SD for at least 12 weeks.

[3] = Plasma pharmacokinetic analyses in clinical trial subjects (C1D1, C1D15); assay type: in vivo, humans
Text: 1) Plasma concentration-time profile of the test drug (days 1 and 15), urine concentration data (day 15), and derived single dose plasma PK and multiple dose plasma and urine PK parameters (if applicable). • Blood samples are collected according to a predetermined schedule to measure a plasma concentration of the test drug (Table 5). In phase Ia clinical trials, entire urine needs to be collected over each dosing interval according to a pre-determined schedule, starting after dose administration (Table 5).
• Samples for the determination of the test drug in plasma and urine are analyzed using appropriate validated bioanalytical methods. • Pharmacokinetic parameters are derived using noncompartmental methods with Phoenix® WinNonlin® Version 8.0 or higher (Certara, L.P. Princeton, New Jersey, USA) and/or SAS® Version 9.2 or higher (SAS Institute, Inc., Cary, North Carolina, USA). Actual elapsed time from dosing will be used for the final plasma PK parameter calculations. A minimum of 3 quantifiable postdose concentrations will be required for all calculations. • The PK parameters to be determined for plasma concentration of the test drug on day 1 of cycle 1 and day 15 of cycle 1, if calculable, include but not be limited to the following parameters presented table 6.
Plasma concentrations and PK parameters of the test drug are listed and summarized by dose, cycle, and clinical trial phase using descriptive statistics.
On the day 1 of cycle 1 (C1D1), plasma samples for pharmacokinetic analyses in clinical trial subjects were obtained before and after administration of the test drug (0.5, 1, 1.5, 2, 3, 4, 6, 9, 12 and 24 hours). As a result of the collected pharmacokinetic analyses, it was confirmed that a maximum plasma concentration after a single dose of 50 mg QD, 100 mg QD and 200 mg QD of the test drug ranged […], and a systemic exposure (based on AUC0-24) ranged from 2760 to 21850 ng*h per mL.

[4] = test system: regulatory T cells (Tregs); assay: Whole blood flow-cytometry pharmacodynamics, regulatory T cells; assay type: in vivo, humans; settings: as plasma concentration of the test drug increased (FIG. 6A)
Method: (§1) Blood samples for pharmacodynamic analyses of the test drug were collected in phase Ia (dose escalation part). Whole blood samples were evaluated by flow-cytometry after coimmunostaining for CD3^+, CD4^+, CD25^+, CD127low and CD8^+. Through this, we tried to observe the effects of the test drug on regulatory T cells (Tregs) and CD8^+ T cells.

[5] = test system: CD8+ T cells; assay: Whole blood flow-cytometry pharmacodynamics, CD8+ T cells; assay type: in vivo, humans; settings: as plasma concentration of the test drug increased (FIG. 6B)
Method: as §1

[6] = of 11 clinical trial subjects, oral QD
[7] = 11 of 12 subjects enrolled in phase Ia assessed
[8] = multiple dosing (C1D15), 50 mg to 200 mg cohort

Question: Which “dose limiting toxicities (DLTs) observed” value ([1]; cohort 4, 325 mg QD) does the source give for C[C@H](Nc1ncnc2[nH]ccc(=O)c12)c1c(Cl)c2cccc(Cl)c2c(=O)n1-c1ccccc1 [test drug, 4-[[(1S)-1-(4,8-dichloro-1-oxo-2-phenyl-3-isoquinolyl)ethyl]amino]-8H-pyrido[2,3-d]pyrimidin-5-one] here?
Answer: two

Question: What about the “serious adverse events rated as grades 3 (severe) to 5 (death)” value ([1]; cohorts 1 to 3 (50, 100, 200 mg QD)) of the same compound?
Answer: no serious adverse events

Question: What about the “subjects with TEAEs evaluated to be related to the test drug” value ([1]; cohorts 1 to 3 (50, 100, 200 mg QD), 3 of 5 subjects) of the same compound?
Answer: 60.0%

Question: And the “subjects with treatment-emergent adverse events (TEAEs)” value ([1]; cohorts 1 to 3 (50, 100, 200 mg QD), 4 out of 5 subjects)?
Answer: 80.0%

Question: What about the administration-related deaths ([1]; cohorts 1 to 3, 5 subjects) of the same compound?
Answer: no administration-related deaths occurred

Question: And the “subjects with TEAE of grade 1 (mild)” value ([1]; cohorts 1 to 3, 5 subjects)?
Answer: 1 subject

Question: What about the “subjects with TEAE of grade 2 (moderate)” value ([1]; cohorts 1 to 3, 5 subjects) of the same compound?
Answer: 2 subjects

Question: What about the “subjects with TEAE of grade 4 (life-threatening)” value ([1]; cohorts 1 to 3, 5 subjects, thrombocytopenia, not related to the test drug) of the same compound?
Answer: 1 subject

Question: What about the “dose limiting toxicity (DLT)” value ([1]; dose range of cohorts 1 to 3 (50, 100, 200 mg QD)) of the same compound?
Answer: no dose limiting toxicity

Question: And the tolerability ([1]; dose range up to 200 mg QD)?
Answer: excellent

Question: What about the “dose limiting toxicity (DLT)” value ([1]; expansion cohort 200 mg QD, 6 subjects) of the same compound?
Answer: No dose limiting toxicity

Question: What about the “subjects showing grade 3 skin reaction” value [1, 6] of the same compound?
Answer: 2 subjects

Question: And the subjects showing hepatotoxicity [1, 6]?
Answer: 3 subjects

Question: And the “maximum tolerated dose (MTD)” value ([1]; oral, 28-day cycle, phase Ia)?
Answer: 200 mg QD

Question: And the “recommended starting dose (RP2D) for clinical phase Ib/II” value ([1]; recommended by the Safety Monitoring Committee)?
Answer: 200 mg QD

Question: And the “outcome of adverse events (skin reaction, hepatotoxicity)” value ([1]; upon discontinuation of the test drug)?
Answer: manageable and recovered to grade 0 or 1

Question: And the “complete response (CR)” value ([2]; 8 subjects diagnosed with PTCL)?
Answer: 1 subject

Question: What about the “disease control rate (DCR)” value ([2]; 8 subjects diagnosed with PTCL) of the same compound?
Answer: 87.5%

Question: And the “disease progression (PD)” value ([2]; 8 subjects diagnosed with PTCL)?
Answer: 1 subject

Question: What about the “partial responses (PR)” value ([2]; 8 subjects diagnosed with PTCL) of the same compound?
Answer: 2 subject

Question: What about the “complete response (CR)” value [2, 7] of the same compound?
Answer: 1 subject

Question: What about the “disease progression (PD)” value [2, 7] of the same compound?
Answer: 2 subjects

Question: What about the “partial response (PR)” value [2, 7] of the same compound?
Answer: 2 subjects

Question: What about the “activity in peripheral T-cell lymphoma (PTCL) subjects” value ([2]; PTCL subjects, phase Ia) of the same compound?
Answer: preliminary activity

Question: What about the “dose dependence of exposure concentration” value ([3]; C1D1, dose range of 50 mg to 200 mg (FIG. 4)) of the same compound?
Answer: increased in a dose-dependent manner

Question: And the maximum plasma concentration ([3]; C1D1, single dose of 50, 100 and 200 mg QD, plasma)?
Answer: ≤ 2443 ng/mL

Question: What about the “increase in exposure based on AUCtau” value [3, 8] of the same compound?
Answer: ~4.97 fold

Question: What about the “increase in exposure based on Cmax” value [3, 8] of the same compound?
Answer: ~2.92 fold

Question: What about the “dose dependence of exposure concentration” value ([3]; multiple dosing (C1D15), dose range of 50 mg to 200 mg (FIG. 5)) of the same compound?
Answer: increased in a dose-dependent manner

Question: And the accumulation ([3]; multiple dosing, dose range of 50 mg to 200 mg)?
Answer: no accumulation observed

Question: And the “change of regulatory T cells (Tregs) compared to the baseline value” [4]?
Answer: decreased

Question: And the “change of CD8+ T cells compared to the baseline value” [5]?
Answer: increased
